Experimental findings from US20210355107A1, “MULTI-SUBSTITUTED PYRIDONE DERIVATIVES AND MEDICAL USE THEREOF” (Beijing Yuezhikangtai Biomedicines Co., Ltd., priority 2018, published 2021) are described below.

Assay [1] concerns the target T1, kinase c-MET (Homo sapiens, UniProt P08581).
T1 construct: purchased Carna 08-151
The assay is described as follows: Mobility shift assay, inhibitory activity against kinase c-MET. The class given is biochemical. The conditions noted are these: ATP at Km (35 μM), average of two independent experiments.

Assay [2] addresses T2, tyrosine kinase Mer (Homo sapiens, UniProt Q12866).
T2 construct: purchased Carna 08-108
T2 sequence (Q12866 528-999 limits assumed): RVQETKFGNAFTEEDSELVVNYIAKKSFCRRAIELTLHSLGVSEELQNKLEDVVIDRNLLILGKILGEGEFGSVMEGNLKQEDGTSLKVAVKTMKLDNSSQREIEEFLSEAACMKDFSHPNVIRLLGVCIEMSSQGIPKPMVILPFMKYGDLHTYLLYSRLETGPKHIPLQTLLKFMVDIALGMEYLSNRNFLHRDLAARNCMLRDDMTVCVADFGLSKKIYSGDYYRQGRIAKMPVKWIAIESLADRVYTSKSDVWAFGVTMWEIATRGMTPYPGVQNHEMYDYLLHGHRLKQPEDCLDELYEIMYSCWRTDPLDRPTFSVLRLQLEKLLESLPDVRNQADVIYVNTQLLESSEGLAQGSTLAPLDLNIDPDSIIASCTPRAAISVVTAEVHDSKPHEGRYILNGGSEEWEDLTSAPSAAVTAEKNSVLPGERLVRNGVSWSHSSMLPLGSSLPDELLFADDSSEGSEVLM
The assay is described as follows: HTRF assay, inhibitory activity against tyrosine kinase Mer. The settings on record: ATP at Km (30 μM), two duplicate wells. It counts as biochemical. As for the experimental part:
Test Example 2: Evaluation of Inhibitory Activity (IC50) of Compounds disclosed herein against Tyrosine Kinases Mer and Tyro3
In this test, HTRF method was used to test the inhibitory activity of compounds when ATP concentrations correspond to the Km of the kinases. The control substance was RXDX-106. The concentration of test compound was 3-fold diluted from an initial concentration of 10 μM, and two duplicate wells were set.
Kinase Mer (Carna, Cat. No. 08-108, Lot. No. 14CBS-0421H); Tyro3 (Carna, Cat. No. 08-109, Lot. No. 08CBS-1186H); HTRF kinase-TK kit (Cisbio, Cat. No. 62TK0PEC), the kit comprising: biotin-TK substrate lyophilized powder (Cisbio, Cat. No. 61TK0BLC, Lot. No. 07A), streptavidin-XL665 (Cisbio, Cat. No. 610SAXLG, Lot. No. 126A), TK antibody-cryptate (Cisbio, Cat. No. 610SAXLG, Lot. No. 04A), and detection buffer (including EDTA) (Cisbio, Cat. No. 62TK0PEC, Lot. No. 12A); ATP (Sigma, Cat. No. A7699-5G, CAS No. 34369-07-8, Lot. No. SLBQ6014V); DMSO (Sigma, Cat. No. D5879-1L, Lot. No. SHBH9944); HEPES (Sigma, Cat. No. V900477-500G, CAS No. 7365-45-9, Lot. No. WXBC4716V); MgCl2 (Sigma, Cat. No. 208337-1KG, Lot. No. MKBX9508V); EGTA (Sigma, Cat. No. E3889-100g, CAS 67-42-5, […], Lot. No. SLBG8546V); NP-40 (Beijing Dingguo, Cat. No. DH218, Lot. No. 36R00160); DTT (Sigma, Cat. No. D0632-25g, CAS No. 3483-12-3, Lot. No. SLBF3964V); compound plate (Labcyte, Cat. No. LP0200, Lot. No. 0006386836); assay plate (Greiner, Cat. No. 784075, Lot. No. E16123HM); control substance RXDX-106 (prepared according to the method disclosed in patent WO2013074633).
1) Preparation of a buffer: 50 mM HEPES, 10 mM MgCl2, 1 mM EGTA, 0.01% NP-40, 2 mM DTT.
2) Preparation of control substance and test samples: RXDX-106 and the compounds disclosed herein were each dissolved in DMSO to 10 mM and then diluted to 1 mM or an appropriate concentration with DMSO, and then serial double dilution was performed using BRAVO (Agilent). 100 nL of each was transferred from a compound plate (Labcyte-LP0200) to an assay plate (Greiner-784075) using ECHO 555 (Labcyte). The final concentration of DMSO was 1%.
3) Mer and Tyro3 were each diluted to 0.5 nM and 1.2 nM with the detection buffer (Cisbio, Cat. No. 62TK0PEC, Lot. No. 12A). 5 μL of each was added to a 384-well plate and incubated with the compounds disclosed herein for 30 min at 22-25° C. Final concentrations of Mer and Tyro3 were 0.25 nM and 0.6 nM, respectively.
4) Biotin-TK substrate and ATP were each diluted to a concentration twice the final concentration with 1× kinase buffer made up of HEPES, NaN3, BSA and orthovanadate. 5 μL of the mixture of substrate and ATP was added to the 384-well plate to initiate the reaction, which lasts for 1 h at 22-25° C.
5) Streptavidin-XL665 and TK antibody-cryptate were diluted to 250 nM and 0.5 nM, respectively, with the detection buffer. […] of each of the two solutions was added to the 384-well plate to initiate the reaction, which lasts for 1 h at 22-25° C. The final concentrations of streptavidin-XL665 and TK antibody-cryptate were 125 nM and 0.25 nM, respectively.
6) The fluorescence intensities at 665 nm and 615 nm were read with an Envision Reader (PerkinElmer) .
7) IC50 values of the compounds were fitted with XL-fit software.
(In general: Time-resolved FRET reads energy transfer from a long-lived donor to a nearby acceptor.)

T1 sequence (P08581 956-1390 limits assumed): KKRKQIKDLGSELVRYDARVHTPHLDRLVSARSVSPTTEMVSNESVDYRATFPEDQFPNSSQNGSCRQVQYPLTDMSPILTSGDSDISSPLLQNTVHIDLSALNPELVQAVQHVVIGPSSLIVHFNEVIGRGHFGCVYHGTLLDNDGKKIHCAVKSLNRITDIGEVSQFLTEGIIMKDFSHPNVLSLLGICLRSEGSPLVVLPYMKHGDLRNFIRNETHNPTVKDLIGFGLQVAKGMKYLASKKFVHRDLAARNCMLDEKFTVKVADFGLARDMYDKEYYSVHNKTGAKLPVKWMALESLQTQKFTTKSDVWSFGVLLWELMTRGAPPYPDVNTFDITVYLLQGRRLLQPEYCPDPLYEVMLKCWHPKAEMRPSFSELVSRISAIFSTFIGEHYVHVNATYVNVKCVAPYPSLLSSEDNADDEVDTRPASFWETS

In the case of `CC(C)n1cc(C(=O)Nc2ccc(-c3cc(-c4cnn(C5CCNCC5)c4)cnc3N)c(F)c2)c(=O)c(-c2ccc(F)cc2)c1C#N` [Example 2, N-(4-(2-amino-5-(1-(piperidin-4-yl)-1H-pyrazol-4-yl)pyridin-3-yl)-3-fluorophenyl)-6-cyano-5-(4-fluorophenyl)-1-isopropyl-4-oxo-1,4-dihydropyridine-3-carboxamide], the IC50 in assay [1] came to 14 nM; in assay [2], 0.62 nM.
For the molecule `CCn1cc(-c2cnc(N)c(-c3ccc(NC(=O)c4cn(C(C)C)c(C#N)c(-c5ccc(F)cc5)c4=O)cc3F)c2)cn1` [Example 3, N-(4-(2-amino-5-(1-ethyl-1H-pyrazol-4-yl)pyridin-3-yl)-3-fluoro-phenyl)-6-cyano-5-(4-fluorophenyl)-1-isopropyl-4-oxo-1,4-dihydropyridine-3-carboxamide], the results for the IC50 in assay [1] and in assay [2] were 30 nM and 1.11 nM, respectively.
For `CC(C)n1cc(C(=O)Nc2ccc(-c3cc(-c4cnn(C)c4)cnc3N)c(F)c2)c(=O)c(-c2ccc(F)cc2)c1C#N` [Example 4, N-(4-(2-amino-5-(1-methyl-1H-pyrazol-4-yl)pyridin-3-yl)-3-fluorophenyl)-6-cyano-5-(4-fluorophenyl)-1-isopropyl-4-oxo-1,4-dihydropyridine-3-carboxamide], the IC50 in assay [1] was found to be 3 nM; in assay [2], 0.78 nM.
On to `CC(C)n1cc(C(=O)Nc2cc(F)c(-c3cc(-c4cnn(C)c4)cnc3N)cc2F)c(=O)c(-c2ccc(F)cc2)c1C#N` [Example 6, N-(4-(2-amino-5-(1-methyl-1H-pyrazol-4-yl)pyridin-3-yl)-2,5-difluorophenyl)-6-cyano-5-(4-fluorophenyl)-1-isopropyl-4-oxo-1,4-dihydropyridine-3-carboxamide], for which the half-inhibitory concentration (IC50) in assay [1] was found to be 26 nM; in assay [2], 1.17 nM.
As to `CC(C)n1cc(C(=O)Nc2ccc(-c3cc(-c4cnn(C5CCN(C)CC5)c4)cnc3N)c(F)c2)c(=O)c(-c2ccc(F)cc2)c1C#N` [Example 7, N-(4-(2-amino-5-(1-(1-methylpiperidin-4-yl)-1H-pyrazol-4-yl)-pyridin-3-yl)-3-fluorophenyl)-6-cyano-5-(4-fluorophenyl)-1-isopropyl-4-oxo-1,4-dihydro-pyridine-3-carboxamide], the IC50 in assay [2] came out at 0.63 nM.
For the molecule `CCn1cc(-c2cnc(N)c(-c3ccc(NC(=O)c4cn(C5CC5)c(C#N)c(-c5ccc(F)cc5)c4=O)cc3F)c2)cn1` [Example 10, N-(4-(2-amino-5-(1-ethyl-1H-pyrazol-4-yl)pyridin-3-yl)-3-fluorophenyl)-6-cyano-5-(4-fluorophenyl)-1-cyclopropyl-4-oxo-1,4-dihydropyridine-3-carboxamide], the results for the half-maximal inhibitory concentration (IC50) in assay [1] and in assay [2] were 23 nM and 2.17 nM, respectively.
In the case of `COc1cc2nccc(Oc3ccc(NC(=O)c4cn(C(C)C)c(C#N)c(-c5ccc(F)cc5)c4=O)cc3F)c2cc1OC` [Example 24, 6-cyano-N-(4-((6,7-dimethoxyquinolin-4-yl)oxy)-3-fluoro-phenyl)-5-(4-fluorophenyl)-1-isopropyl-4-oxo-1,4-dihydropyridine-3-carboxamide], in assay [2], the IC50 was 11.4 nM.
In assay [2], `CCn1cc(-c2cnc(N)c(-c3cc(F)c(NC(=O)c4cn(C(C)C)c(C#N)c(-c5ccc(F)cc5)c4=O)cc3F)c2)cn1` [Example 33, N-(4-(2-amino-5-(1-ethyl-1H-pyrazol-4-yl)pyridin-3-yl)-2,5-difluorophenyl)-6-cyano-5-(4-fluorophenyl)-1-isopropyl-4-oxo-1,4-dihydropyridine-3-carboxamide] returned an IC50 of 0.92 nM.
In the case of `[2H]C([2H])([2H])n1cc(-c2cnc(N)c(-c3cc(F)c(NC(=O)c4cn(C(C)C)c(C#N)c(-c5ccc(F)cc5)c4=O)cc3F)c2)cn1` [Example 34, N-(4-(2-amino-5-(1-methyl-d3-1H-pyrazol-4-yl)pyridin-3-yl)-2,5-difluorophenyl)-6-cyano-5-(4-fluorophenyl)-1-isopropyl-4-oxo-1,4-dihydropyridine-3-carboxamide], the midpoint of inhibition in assay [2], the IC50, lay at 1.16 nM.

As usually defined, the IC50 is the concentration that gives 50% inhibition.
